Biological target: Sodium channel protein type 10 subunit alpha (Homo sapiens, UniProt Q9Y5Y9)
Experiment: Not found
Text: Not found

Sequence of Sodium channel protein type 10 subunit alpha (Q9Y5Y9 whole entry): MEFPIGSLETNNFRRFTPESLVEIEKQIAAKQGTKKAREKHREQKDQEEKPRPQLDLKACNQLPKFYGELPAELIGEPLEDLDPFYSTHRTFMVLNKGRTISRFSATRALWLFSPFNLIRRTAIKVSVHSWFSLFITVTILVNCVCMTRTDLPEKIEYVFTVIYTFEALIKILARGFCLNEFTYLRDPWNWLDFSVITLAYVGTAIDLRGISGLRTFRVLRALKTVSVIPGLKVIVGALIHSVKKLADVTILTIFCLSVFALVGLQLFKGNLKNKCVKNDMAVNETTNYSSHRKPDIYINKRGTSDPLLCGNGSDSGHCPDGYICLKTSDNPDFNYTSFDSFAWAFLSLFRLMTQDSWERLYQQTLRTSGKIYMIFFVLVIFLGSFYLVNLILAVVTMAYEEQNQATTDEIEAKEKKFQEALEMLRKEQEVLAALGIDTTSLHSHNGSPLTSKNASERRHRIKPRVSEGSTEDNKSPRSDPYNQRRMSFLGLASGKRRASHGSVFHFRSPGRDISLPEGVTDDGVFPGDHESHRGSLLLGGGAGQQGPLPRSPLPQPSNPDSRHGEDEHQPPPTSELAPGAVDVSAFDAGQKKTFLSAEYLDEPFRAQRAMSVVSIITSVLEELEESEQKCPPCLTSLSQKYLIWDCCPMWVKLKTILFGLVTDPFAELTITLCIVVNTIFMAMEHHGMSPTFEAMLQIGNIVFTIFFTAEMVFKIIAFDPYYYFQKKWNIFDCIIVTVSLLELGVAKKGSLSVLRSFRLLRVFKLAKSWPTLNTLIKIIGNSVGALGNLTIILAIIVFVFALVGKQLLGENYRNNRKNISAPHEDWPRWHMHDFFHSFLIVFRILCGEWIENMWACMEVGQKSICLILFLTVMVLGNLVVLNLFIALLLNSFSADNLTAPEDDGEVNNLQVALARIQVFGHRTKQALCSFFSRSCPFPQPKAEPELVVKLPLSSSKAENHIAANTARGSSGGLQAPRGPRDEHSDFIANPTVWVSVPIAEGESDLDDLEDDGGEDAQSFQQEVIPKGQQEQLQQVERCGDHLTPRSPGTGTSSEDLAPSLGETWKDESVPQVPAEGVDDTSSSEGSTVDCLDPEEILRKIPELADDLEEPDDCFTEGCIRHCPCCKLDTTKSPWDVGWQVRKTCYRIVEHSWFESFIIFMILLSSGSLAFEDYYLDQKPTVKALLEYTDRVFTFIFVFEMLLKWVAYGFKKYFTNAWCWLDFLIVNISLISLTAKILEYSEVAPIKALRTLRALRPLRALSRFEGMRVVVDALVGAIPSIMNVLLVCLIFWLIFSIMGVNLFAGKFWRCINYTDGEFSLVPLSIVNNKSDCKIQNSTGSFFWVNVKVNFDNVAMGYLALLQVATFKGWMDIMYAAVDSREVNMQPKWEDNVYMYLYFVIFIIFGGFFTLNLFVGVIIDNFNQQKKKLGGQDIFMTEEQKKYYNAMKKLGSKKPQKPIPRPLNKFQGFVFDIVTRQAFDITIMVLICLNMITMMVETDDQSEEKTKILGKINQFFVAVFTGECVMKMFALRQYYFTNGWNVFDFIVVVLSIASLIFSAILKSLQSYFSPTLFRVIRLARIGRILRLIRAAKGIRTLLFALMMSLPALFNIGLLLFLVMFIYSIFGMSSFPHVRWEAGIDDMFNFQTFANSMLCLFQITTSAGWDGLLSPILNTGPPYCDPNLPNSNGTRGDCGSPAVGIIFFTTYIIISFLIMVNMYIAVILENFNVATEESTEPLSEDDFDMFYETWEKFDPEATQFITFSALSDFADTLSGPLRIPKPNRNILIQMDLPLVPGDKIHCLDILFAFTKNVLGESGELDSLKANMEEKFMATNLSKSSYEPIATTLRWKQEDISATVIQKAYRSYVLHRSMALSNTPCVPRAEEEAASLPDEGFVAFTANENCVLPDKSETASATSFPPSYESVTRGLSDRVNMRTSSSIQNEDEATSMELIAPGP

An IC50 of 49 nM was found for `Cc1nc(N2CCC(F)(F)C2)c(C(=O)Nc2cccc(S(N)(=O)=O)c2)c(C)c1Cl` [US12344595, Example 5] in this work.
